The results in this text go back to patent US20230190707A1, “COMPOSITIONS AND METHODS FOR ENHANCING CANCER IMMUNOTHERAPY” (FRED HUTCHINSON CANCER CENTER, priority 2020, published 2023).

The term IC50 denotes the concentration that gives 50% inhibition. Low readings indicate greater potency, high ones weaker potency.

The subject of data set [1] is MC38 cells. The data set can be described thus: In vitro growth of MC38 cells after MS-023 treatment and washout. The format is cell-based, mouse. The settings on record: 5 μM for 96 hours. Here is the method:
(§1) Unless otherwise specified, cell lines were treated with splicing inhibitors at the indicated concentrations for 96 hours in vitro, harvested and washed three times with PBS in excess to remove all drug, and then used for downstream analyses and/or subsequent studies, including phenotyping, RNA-seq analyses, continued growth in vitro, or tumor challenge in vivo into syngeneic animals.

For data set [2], the system named is MC38 cells. Briefly: In vivo tumor challenge with ex vivo MS-023-treated MC38 cells. Also noted: species or system mouse. The following applies: MC38 cells treated 5 μM for 96 hours. How it is done: as §1
(§2) Unless otherwise specified, syngeneic B6 or Balb/c mice were engrafted subcutaneously on bilateral flanks with MC38, B16-F10, CT26 or LLC tumor cells at the following doses: MC38 10^6 cells, B16-F10 0.5×10^6 cells, CT26 0.25×10^6 cells, LLC 0.25×10^6 cells. Tumors were measured serially twice or three times weekly and tumor volumes were estimated by length×width×height. Animals were monitored daily for survival and weighed twice weekly. Experimental endpoints mandating euthanasia were approved by the IACUC and included: animal lethargy, severe kyphosis or evidence of pain, difficulty with ambulation or feeding, tumor ulceration>1 cm or bleeding tumor, evidence of infected tumor, tumor volumes exceeding 2.5 cm^3, or animal total body weight loss>10% from baseline.

Data set [3] has as its system asymmetric dimethyl arginines (ADMA). Briefly: ADMA levels by western blot after MS-023. The format is cell-based, mouse. The settings on record: MC38 cells, 5 μM for 96 hours. Here is the method: as §1
(§3) Western blotting was performed as per standard techniques. Anti-RBM39 (Atlas Antibodies, Cat. HPA001591 or Bethyl laboratories, Cat. A300-291A) were used to detect RBM39 degradation. ADMA and SDMA levels were determined using antibodies from Cell Signaling Technologies (Cat. 13222S and Cat. 135225). Actin antibody (clone AC-15) was obtained from MilliporeSigma (Cat. A5441-.2ML). Densitometry of RBM39 and actin loading control was performed using ImageJ software in order to calculate RBM39 degradation IC50 values.
In general terms: Immunoblotting shows a protein as a band on a membrane.

Data set [4] deals with B16-F10, MC38, and CT26 cells. Briefly: In vitro growth after ex vivo indisulam treatment and drug washout. The format is cell-based, mouse. The settings on record: ex vivo 1 μM for four days followed by drug washout. How it is done:
as §1

In data set [5] the test system is MHC I, MHC II, PD-L1, IFNγ receptors, TNF receptors, DR5. The data set can be described thus: Cell-surface marker expression after drug treatment. The format is cell-based, mouse.
The test system of data set [6] is B16-F10, MC38, and CT26 cells. Briefly: In vivo tumor challenge with ex vivo indisulam-treated cells in syngeneic mice. More on the design: species or system mouse. Here is the method: as §1, §2
Data set [7] deals with B16-F10, MC38, CT26, and LLC cells. The data set can be described thus: Cell growth/viability IC50 (CellTiter-Glo). The format is cell-based. The settings on record: Mus musculus; range across B16-F10, MC38, CT26, LLC cells. How it is done:
Cell lines were grown with half-log10 concentrations of the indicated drug in 4 to 8 technical replicates under standard conditions until the control condition (DMSO or vehicle) was confluent by microscopy. For tumor cell lines, viable cells were quantified via the CellTiter-Glo® assay (Promega Cat. G7573) as per manufacturer instructions. For the ex vivo proliferation of T cells, viable cells were instead quantified via flow cytometry using counting beads. The percentage or number of viable cells with drug treatment was calculated relative to DMSO control (as 100%). […] For absolute cell number, Annexin V+, CD25+, and PD1+ flow cytometry data presented in Figure S4, dose-response models and IC50 values were computed using the R language's dre package (Ritz, C., et al. (2015). Dose-Response Analysis Using R. PLoS One 10, e0146021).
(In general: Cellular ATP, detected with luciferase, serves as a proxy for viable cell number.)

The target of another data set is T1, RBM39 (Mus musculus, UniProt Q6PFH3+Q8VH51).
T1 construct: endogenous in cells; host or cells: B16-F10 (also MC38, CT26, LLC)
The data set can be described thus: RBM39 degradation, western blot densitometry. The format is cell-based. How it is done:
as §3

Data set [8] concerns lung and colonic tissue, splenic T cells. Briefly: RNA-seq of non-tumor tissues from indisulam-treated animals. The format is in vivo, mouse. Here is the method:
Bulk lung and colon were homogenized using a Qiagen TissueRuptor. For all tissues and cell types, RNA was extracted using an RNeasy kit (Qiagen, Frederick, Md.) and quantified using a NanoDrop 8000 (ThermoFisher Scientific). A minimum of 500 ng of high-quality RNA (as determined by Agilent Bioanalyzer) per sample or replicate was used for library preparation. Poly(A)-selected, strand-specific (dUTP method) Illumina libraries were prepared with a modified TruSeq protocol and sequenced on the Illumina HiSeq 2000 (˜100M 2×101 bp paired-end reads per sample or replicate).
RNA-seq analysis was performed as previously described (Dvinge, H., et al. (2014). Sample processing obscures cancer-specific alterations in leukemic transcriptomes. Proc Natl Acad Sci USA 111, 16802-16807, incorporated herein by reference in its entirety). […] Aligned reads from these two mapping steps were merged to generate final BAM files for all subsequent analyses.
MISO v2.0 was used to quantify all expression of isoforms arising from exon skipping (cassette exons), competing 5′ splice site selection, competing 3′ splice site selection, and annotated intron retention. […]

With `CC(C)Oc1ccc(-c2c[nH]cc2CN(C)CCN)cc1` [MS-023], in the data set on MC38 cells [1], the “cell growth in vitro after drug washout” value is “minimal effects”. In the data set on MC38 cells [2], the “tumor growth following engraftment into syngeneic, immune-competent mice” value is reported as “durable suppression of tumor growth”. In data set [3], the “asymmetric dimethyl arginines (ADMA)” value is on record as “globally reduced”.
Consider `NS(=O)(=O)c1ccc(S(=O)(=O)Nc2cccc3c(Cl)c[nH]c23)cc1` [indisulam], for which the “subsequent cell proliferation or apoptosis” value in [4] is listed as “minimal effects”. Further, the “cell-surface expression of MHC I, MHC II, PD-L1, or cytokine or death receptors” value in [5] is listed as “did not change”. In addition, the “tumor growth following engraftment into syngeneic, immunocompetent mice” value in [6] (cells treated ex vivo 1 μM four days, drug washout) is “strikingly durable growth inhibition”. Further, the animal survival result in data set [6] (exposure to increasing drug concentrations (CT26; 10, 100, 1000 nM, 96 hours)) is listed as “improved animal survival”. For the same compound, in [7], the IC50 lay within 2100 to 73000 nM. Moreover, at RBM39 (ex vivo 1 μM for four days followed by drug washout), the “RBM39 protein following drug removal” value is reported as “sustained suppression of RBM39 protein”. Moreover, the DC50 on RBM39 (range across B16-F10, MC38, CT26, LLC cells, 24 hours, read-out: IC50 values for RBM39 degradation) was 60 to 1000 nM. In addition, the “splicing changes in lung, colonic tissue and splenic T cells” value in data set [8] was “only mild changes in splicing”.
